Key:
[1] = LNP formulation screening: physical characteristics; format: physicochemical; conditions: LNP with surrogate RNA coding for luciferase
Description: (§1) An exemplary LNP delivery system was developed to effectively and safely deliver therapeutic nucleic acids into the cytosol of various cell types after local administration in vivo. The early formulation work was performed with several promising LNP formulations and surrogate RNA coding for luciferase. The aim of the experiments was to correlate the effect of different ionizable cationic lipids on the efficacy of RNA delivery by LNPs in vivo. Formulations were compared in terms of RNA encapsulation efficiency, apparent pKa, LNP size and polydispersity.

liver = assay: in vivo screening of LNP with luciferase (Luc) RNA, intravenous administration
Description: as §1
Based on this the ALC-0315/DSPC/CHOL/ALC-0159 prototype was submitted for in vivo screening. The results presented in FIG. 16 summarize the in vivo testing of two independent pilot batches using luciferase (Luc) RNA.
The formulation screening procedure described above involves intravenous administration resulting in delivery primarily to the liver. The mechanism of LNP uptake into hepatocytes is driven by binding of endogenous apolipoproteins to the LNP followed by receptor-mediated endocytosis e.g. through low density lipoprotein receptors. […] Luc expression was monitored at 4, 24, 72 and 96 hours post administration (FIG. 17).

Structure (SMILES): CCCCCCCCC(CCCCCC)C(=O)OCCCCCCN(CCCCO)CCCCCCOC(=O)C(CCCCCC)CCCCCCCC (centres unmarked) [ALC-0315, ((4-hydroxybutyl)azanediyl)bis(hexane-6,1-diyl)bis(2-hexyldecanoate)]
- physical characteristics regarding particle size, homogeneity, and RNA encapsulation efficiency [1]: suitable
- potency as cationic lipid (liver): highly potent
